Measured values taken from PMC7377474, “Preclinical characterization of CPL302-253, a selective inhibitor of PI3Kδ, as the candidate for the inhalatory treatment and prevention of Asthma” (PLoS ONE, 2020).
“And” between values parts separate entries of the source, which are not always exact repeats. Equal entries are not always repeated. Where two headings read alike, the source gives them in different places.

Experiments:
[1] = target: T1, hERG (Homo sapiens, UniProt Q12809); type: cell-based; conditions: 10 μM
T1 construct: purchased DiscoverX (Eurofins) SafetyScan44
Experimental: (§1) SafetyScan44 assay was performed by DiscoverX according to service provider’s protocol.

[2] = test system: GPCR, transporters, ion channels, nuclear receptors, kinases and non-kinase enzymes; test: SafetyScan44 panel, overall; type: cell-based; conditions: 10 μM; negative if not exceeding 70% of the control
Experimental: as §1

[3] = test system: HDM induced asthma mouse model; test: HDM-steroid insensitive asthma mice model; conditions: for IL-33 concentration in BAL (Fig 7B), single animals / eosinophils number in BAL (Fig 7A), single animals: day 15
[4] = test system: B cells; test: B lymphocyte activation assay; conditions: for CD25 expression (Fig 3A), single replicates / ki-67 expression (Fig 3B), single replicates: activated B cells
Experimental: B cells were isolated from human frozen PBMCs using EasySep Human CD19 Positive Isolation Kit (StemCell Technologies) according to manufacturers’ protocol. The cells were seeded in AIM V medium (Gibco). […] After 72 hours of culture the cells were stained with antibody againstCD25 (BC96, eBioscience) and ki-67 (Clone 20Raj1, Invitrogen) and analysed on FACSCalibur.

[5] = target: PI3Kγ (Homo sapiens, UniProt P48736); test: ADP-Glo Kinase Assay; type: biochemical; design: purchased Merck Millipore
Experimental: (§2) The potency and selectivity of CPL302-253 against different isotypes of class I PI3K were assessed using ADP-Glo Kinase Assay (Promega) according to manufacturer’s protocol. PI3Kα, PI3Kβ, PI3Kδ, PI3Kγ were purchased from Merck Millipore. The inhibition of examined kinases activity was evaluated by measuring their ability to converse ATP to ADP in the presence of decreasing doses of tested compound (from 400 μM to 0,00004 μM). Kinases were mixed with 1 mM PIP2:PS substrate (Phosphoinositol-4,5-bisphosphate (PIP2) lipid vesicles with phosphoserine (PS), Thermofisher Scientific) and 30 μM ATP in an assay buffer (50 mM HEPES pH 7.5,50 mM NaCl, 3 mM MgCl2, 25 μg/ml BSA). The mixture was incubated in the dark for 1 h at 25°C (PI3Kα and PI3Kδ) or at 30°C (PI3Kβ, PI3Kγ). Next ADP-Glo reagent 1 was added to stop the reaction and remove any remaining ATP. The samples were incubated for 40 min at 25°C. Subsequently the ADP-Glo reagent 2 was added and reactions were incubated for 40 min at 25°C. Finally, luminescence was assessed and the IC50 was calculated.

[6] = target: PI3Kβ (Homo sapiens, UniProt P42338); test: ADP-Glo Kinase Assay; type: biochemical; design: purchased Merck Millipore
Experimental: as §2

[7] = target: PI3Kα (Homo sapiens, UniProt P42336); test: ADP-Glo Kinase Assay; type: biochemical; design: purchased Merck Millipore
Experimental: as §2

[8] = test system: CD8 T cells; test: CD8 T cell activation, IFNγ production; type: cell-based, human; conditions: for IFNγ release (Fig 3C), single replicates: activated CD8 T cells, 48 h
Experimental: CD8 T cells were isolated from human frozen PBMC using EasySep Human CD8 T cell Isolation Kit (StemCell Technologies) according to manufacturer’s protocol and cultured in AIM V medium (Gibco). To cell culture different concentrations of CPL302-253 were added. The cells were activated with Human T Cell Activation/Expansion Kit (Miltenyibiotec) according to manufacturer’s protocol. IFNγ production was measured after 48 h of activation in culture supernatants using IFNγ Human Uncoated ELISA Kit (Invitrogen) according to manufacturer’s protocol.

[9] = test system: basophils; test: Basophils activation (Flow CAST Basophil Activation Test); type: cell-based, human; conditions: for IC50: anti-FcεRI antibody; for IgE (basophil activation, Fig 4D): concentration 0 = 100
Experimental: The study was performed using Flow CAST Basophil Activation Test (Buhlmann) according to manufacturer’s protocol with modifications. In brief to U bottom 96-well plate 50 μl of stimulus solution (stimulating antibody specific for the high-affinity IgE receptor FcεRI) or assay bufferwas added. Subsequently to some wells, 50 μl of inhibitor at different concentrations in assay buffer was added. In the next step 50 μl of EDTA collected fresh human blood was added to each well followed by 50 μl of staining reagent (diluted 2:3 in assay buffer). The cells were incubated for 25 min at 37°Cin humidified incubator in the presence of 5% CO2. After incubation cells were centrifuged and erythrocytes were lysed with pre-warmed (18–28°C) Lysing Reagent. After centrifugation cells were suspended in Wash Buffer and analysed by FACSCalibur. Data were analysed using CellQuestPro and FlowJo software.

[10] = test system: panel of 468 human kinases; test: KINOMEScan broad panel; type: binding; conditions: 1 μM
Experimental: The inhibitor-kinase binding affinity was assessed in KINOMEscan™ assay (Discoverex) according to service provider’s protocol. In brief, in this binding assay the studied compound in solution is incubated with DNA-tagged kinase and kinase active-site directed ligand bound to the beads. The compound competes for binding to kinase with the immobilized ligand. After incubation beads are removed from the solution and kinase bound to ligand is quantified by qPCR. The strength of compound binding is determined based on its ability to block kinase-ligand binding. 11-point 3-fold serial dilution of CPL302-253 was used in order to determine its binding constants (Kd) against different isotypes of class I PI3K. The single concentration of CPL302-253 was used in order to determine its specificity in abroad panel of 468 human kinases. The measure of compounds affinity to each kinase in the panel was the percentage of kinase activity inhibition by tested ligand in comparison to the control.

[11] = HDM + 0.5 mg/kg i.n., 0.5 mg/kg
[12] = i.n. on day 12, 13 and 14, HDM challenge day 14, BALF day 15
[13] = 72 h, concentration 1 (unit not given)
[14] = 72 h, concentration 10 (unit not given)
[15] = 72 h, concentration 100 (unit not given)
[16] = 72 h, concentration 1000 (unit not given)
[17] = 72 h, concentration 10000 (unit not given)

PI3Kβ, sequence (P42338 whole entry): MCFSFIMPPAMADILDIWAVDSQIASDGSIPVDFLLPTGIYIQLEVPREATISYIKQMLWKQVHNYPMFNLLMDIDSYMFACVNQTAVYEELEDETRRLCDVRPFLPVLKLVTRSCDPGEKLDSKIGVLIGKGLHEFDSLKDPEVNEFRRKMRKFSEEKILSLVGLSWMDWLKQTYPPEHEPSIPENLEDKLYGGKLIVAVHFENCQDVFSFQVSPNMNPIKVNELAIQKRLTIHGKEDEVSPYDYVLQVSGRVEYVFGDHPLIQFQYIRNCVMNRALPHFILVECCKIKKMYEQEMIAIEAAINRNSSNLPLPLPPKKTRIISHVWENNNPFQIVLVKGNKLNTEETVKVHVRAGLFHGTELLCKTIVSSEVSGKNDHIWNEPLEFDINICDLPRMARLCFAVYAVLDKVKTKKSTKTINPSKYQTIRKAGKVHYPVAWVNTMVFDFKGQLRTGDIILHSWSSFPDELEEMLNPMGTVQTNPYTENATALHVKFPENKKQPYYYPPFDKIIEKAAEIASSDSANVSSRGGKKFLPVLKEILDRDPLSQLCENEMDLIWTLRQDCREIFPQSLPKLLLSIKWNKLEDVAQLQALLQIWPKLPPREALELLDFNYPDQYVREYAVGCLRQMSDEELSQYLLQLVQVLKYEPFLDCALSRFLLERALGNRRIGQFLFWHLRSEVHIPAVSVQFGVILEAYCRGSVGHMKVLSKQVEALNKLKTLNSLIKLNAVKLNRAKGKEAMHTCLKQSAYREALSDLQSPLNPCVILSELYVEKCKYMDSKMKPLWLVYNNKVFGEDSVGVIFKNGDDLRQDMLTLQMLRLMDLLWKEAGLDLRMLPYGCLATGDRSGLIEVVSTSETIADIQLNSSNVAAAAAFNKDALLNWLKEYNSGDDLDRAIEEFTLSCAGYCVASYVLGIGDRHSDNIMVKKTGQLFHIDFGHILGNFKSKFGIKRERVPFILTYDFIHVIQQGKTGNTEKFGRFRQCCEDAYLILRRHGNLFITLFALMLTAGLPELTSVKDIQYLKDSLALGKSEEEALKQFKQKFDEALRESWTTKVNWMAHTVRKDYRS
PI3Kβ, sequence (P27986 whole entry partner): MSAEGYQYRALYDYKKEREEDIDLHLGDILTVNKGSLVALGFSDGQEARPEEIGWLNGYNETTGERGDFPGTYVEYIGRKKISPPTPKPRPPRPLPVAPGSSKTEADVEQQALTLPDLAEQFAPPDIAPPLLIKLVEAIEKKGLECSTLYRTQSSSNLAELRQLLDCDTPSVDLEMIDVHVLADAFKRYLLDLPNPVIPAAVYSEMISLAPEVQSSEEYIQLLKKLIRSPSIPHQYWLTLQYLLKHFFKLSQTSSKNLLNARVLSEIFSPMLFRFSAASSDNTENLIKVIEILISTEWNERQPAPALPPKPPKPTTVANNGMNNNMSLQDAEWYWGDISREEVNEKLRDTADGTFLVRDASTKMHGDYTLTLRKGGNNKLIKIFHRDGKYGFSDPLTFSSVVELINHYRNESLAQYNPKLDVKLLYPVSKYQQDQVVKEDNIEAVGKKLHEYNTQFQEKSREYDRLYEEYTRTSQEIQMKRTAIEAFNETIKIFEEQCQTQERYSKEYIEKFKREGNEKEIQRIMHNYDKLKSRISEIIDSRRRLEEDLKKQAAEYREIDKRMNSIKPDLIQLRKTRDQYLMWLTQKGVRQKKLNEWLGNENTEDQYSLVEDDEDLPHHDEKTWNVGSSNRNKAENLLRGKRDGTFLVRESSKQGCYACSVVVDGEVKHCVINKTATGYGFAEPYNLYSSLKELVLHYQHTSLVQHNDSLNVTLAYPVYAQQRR
PI3Kα, sequence (P42336 whole entry): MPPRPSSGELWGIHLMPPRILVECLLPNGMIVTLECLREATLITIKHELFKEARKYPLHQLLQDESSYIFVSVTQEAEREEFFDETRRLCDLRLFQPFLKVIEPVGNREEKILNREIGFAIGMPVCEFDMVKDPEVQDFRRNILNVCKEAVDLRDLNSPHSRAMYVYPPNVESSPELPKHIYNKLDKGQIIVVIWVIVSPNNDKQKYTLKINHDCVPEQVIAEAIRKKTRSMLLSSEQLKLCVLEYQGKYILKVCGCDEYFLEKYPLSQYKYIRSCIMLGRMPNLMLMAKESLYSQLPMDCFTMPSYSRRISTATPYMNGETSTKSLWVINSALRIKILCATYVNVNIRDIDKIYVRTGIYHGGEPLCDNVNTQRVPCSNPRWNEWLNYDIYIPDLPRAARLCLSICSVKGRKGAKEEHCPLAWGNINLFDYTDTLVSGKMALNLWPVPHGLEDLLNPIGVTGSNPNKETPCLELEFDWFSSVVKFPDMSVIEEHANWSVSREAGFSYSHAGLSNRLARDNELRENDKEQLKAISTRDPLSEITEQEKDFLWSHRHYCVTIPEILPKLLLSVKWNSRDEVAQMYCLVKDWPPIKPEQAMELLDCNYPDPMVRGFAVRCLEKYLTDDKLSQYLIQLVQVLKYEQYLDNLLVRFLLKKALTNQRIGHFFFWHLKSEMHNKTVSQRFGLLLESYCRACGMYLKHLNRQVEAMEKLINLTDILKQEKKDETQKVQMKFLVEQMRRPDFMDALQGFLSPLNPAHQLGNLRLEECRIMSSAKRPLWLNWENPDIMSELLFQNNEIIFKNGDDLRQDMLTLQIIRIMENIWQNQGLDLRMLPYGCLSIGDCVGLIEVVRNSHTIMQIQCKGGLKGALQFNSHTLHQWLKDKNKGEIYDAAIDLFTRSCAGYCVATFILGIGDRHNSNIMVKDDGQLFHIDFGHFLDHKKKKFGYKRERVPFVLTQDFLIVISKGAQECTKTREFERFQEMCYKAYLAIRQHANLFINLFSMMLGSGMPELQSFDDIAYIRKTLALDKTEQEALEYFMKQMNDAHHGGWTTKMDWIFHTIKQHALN
PI3Kα, sequence (P27986 whole entry partner): as the sequence (P27986 whole entry partner) above
PI3Kγ, sequence (P48736 whole entry): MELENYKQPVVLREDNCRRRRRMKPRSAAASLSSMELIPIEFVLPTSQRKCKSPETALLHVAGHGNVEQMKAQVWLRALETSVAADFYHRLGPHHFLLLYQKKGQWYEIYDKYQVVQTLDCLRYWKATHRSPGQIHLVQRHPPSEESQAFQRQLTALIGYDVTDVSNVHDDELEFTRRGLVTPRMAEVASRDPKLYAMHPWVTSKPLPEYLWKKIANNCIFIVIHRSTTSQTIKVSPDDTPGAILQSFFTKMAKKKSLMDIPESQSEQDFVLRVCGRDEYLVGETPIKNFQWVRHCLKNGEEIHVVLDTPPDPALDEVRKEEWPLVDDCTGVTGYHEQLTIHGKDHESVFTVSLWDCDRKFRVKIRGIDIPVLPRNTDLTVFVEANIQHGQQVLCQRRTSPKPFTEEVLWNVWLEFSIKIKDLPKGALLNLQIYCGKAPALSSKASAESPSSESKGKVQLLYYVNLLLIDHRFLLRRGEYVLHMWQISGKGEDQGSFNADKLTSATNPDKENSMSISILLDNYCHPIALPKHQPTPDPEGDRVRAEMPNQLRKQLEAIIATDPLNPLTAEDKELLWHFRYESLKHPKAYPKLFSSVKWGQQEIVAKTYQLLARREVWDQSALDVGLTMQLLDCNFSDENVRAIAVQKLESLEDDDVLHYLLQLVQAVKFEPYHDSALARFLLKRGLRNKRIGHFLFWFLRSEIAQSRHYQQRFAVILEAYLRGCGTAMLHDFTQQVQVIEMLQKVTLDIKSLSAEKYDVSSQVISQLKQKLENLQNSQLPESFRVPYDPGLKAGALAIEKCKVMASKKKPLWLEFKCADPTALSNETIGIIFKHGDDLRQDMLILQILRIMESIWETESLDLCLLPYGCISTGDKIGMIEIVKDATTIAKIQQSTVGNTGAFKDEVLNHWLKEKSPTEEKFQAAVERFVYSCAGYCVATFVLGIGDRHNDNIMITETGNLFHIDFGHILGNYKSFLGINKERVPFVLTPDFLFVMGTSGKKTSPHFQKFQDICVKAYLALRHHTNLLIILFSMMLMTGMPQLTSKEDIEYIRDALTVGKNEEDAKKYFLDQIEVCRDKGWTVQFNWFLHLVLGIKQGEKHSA

SMILES: CC(C)(C)N1CCN(Cc2cc3nc(-c4cncc5[nH]ccc45)cc(N4CCOCC4)n3n2)CC1 [CPL302-253]
- % Response hERG Blocker [1]: -2.7%
- inhibition or activation of the studied pathways in SafetyScan44 [2]: neither inhibits nor activates any of the studied pathways
- IL-33 concentration in BAL (Fig 7B), single animals [3, 11]: 1.6 and -0.3 and -1.1 and -0.8 and -4.4 and 3 and 4.4 and -0.4 and -4.7 and 1.7
- eosinophils number in BAL (Fig 7A), single animals [3, 11]: 32736 and 8169.96 and 5712.6 and 6975 and 20671.5 and 48073 and 6811.27 and 9495.5 and 84434.2 and 46844.4
- IL-33 concentration in BAL (Fig 7B), single animals ([3]; HDM + 5 mg/kg i.n., 5 mg/kg): 0.5 and 3 and -2.8 and 10.8 and 6.1 and 2.3 and 1 and 2.6 and 9.8
- eosinophils number in BAL (Fig 7A), single animals ([3]; HDM + 5 mg/kg i.n., 5 mg/kg): 17665.4 and 6769.78 and 17936.5 and 52878.7 and 44238.8 and 8082.51 and 80102.2 and 24189.9 and 38935.1 and 17565.7
- IL-33 production in the lungs [3, 12]: effectively blocked
- eosinophil influx to the lungs [3, 12]: effectively blocked
- B cell proliferation (ki-67 expression) ([4]; B cells activated with ODN2006 and αIgM F(ab')2, 72 h): blocked also B cell proliferation
- concentration at which inhibition of CD25 expression was observed ([4]; B cells after BCR and TLR stimulation, 72 h): 10 nM
- CD25 expression (Fig 3A), single replicates [4, 13]: 68 and 59 and 72 and 57
- ki-67 expression (Fig 3B), single replicates [4, 13]: 46 and 43.4 and 77
- CD25 expression (Fig 3A), single replicates [4, 14]: 52 and 60 and 66 and 49
- ki-67 expression (Fig 3B), single replicates [4, 14]: 48 and 23.5 and 54
- CD25 expression (Fig 3A), single replicates [4, 15]: 39 and 31 and 52 and 64 and 48
- ki-67 expression (Fig 3B), single replicates [4, 15]: 29 and 16.5 and 35
- CD25 expression (Fig 3A), single replicates [4, 16]: 9 and 22 and 24 and 38 and 20
- ki-67 expression (Fig 3B), single replicates [4, 16]: 23 and 2.4 and 24
- CD25 expression (Fig 3A), single replicates [4, 17]: 4 and 3 and 11 and 6
- ki-67 expression (Fig 3B), single replicates [4, 17]: 5 and 1
- IC50 [5]: 45.4 µM
- Ratio to δ ([5]; IC50 of isoform γ to δ): 3725
- IC50 [6]: 9.58 µM
- Ratio to δ ([6]; IC50 of isoform β to δ): 785
- IC50 [7]: 4.52 µM
- Ratio to δ ([7]; IC50 of isoform α to δ): 371
- concentration at which IFNγ production was blocked ([8]; CD8 T cells after TCR engagement): 1 nM
- IFNγ release (Fig 3C), single replicates ([8]; concentration 1 (unit not given)): 418.61 and 469.87 and 245.35
- IFNγ release (Fig 3C), single replicates ([8]; concentration 10 (unit not given)): 400.4 and 276.31 and 203.71
- IFNγ release (Fig 3C), single replicates ([8]; concentration 100 (unit not given)): 219.02 and 101.31 and 52.94
- IFNγ release (Fig 3C), single replicates ([8]; concentration 10000, first column (unit not printed)): 55.96 and 7.95 and 23.25
- IFNγ release (Fig 3C), single replicates ([8]; concentration 10000, second column (unit not printed)): 155.93 and 70.92 and 72.2
- IC50 ([9]; 25 min, human whole blood, 25 min, read-out: IC50 CD63 expression after basophils activation): 0.036 µM
- IgE (basophil activation, Fig 4D) ([9]; Concentration 1 (unit not given)): 93.65
- IgE (basophil activation, Fig 4D) ([9]; Concentration 3 (unit not given)): 103.18
- IgE (basophil activation, Fig 4D) ([9]; Concentration 10 (unit not given)): 85.97
- IgE (basophil activation, Fig 4D) ([9]; Concentration 33 (unit not given)): 51.03
- IgE (basophil activation, Fig 4D) ([9]; Concentration 100 (unit not given)): 22
- IgE (basophil activation, Fig 4D) ([9]; Concentration 333 (unit not given)): 3.87
- IgE (basophil activation, Fig 4D) ([9]; Concentration 1000 (unit not given)): -1.11
- IgE (basophil activation, Fig 4D) ([9]; Concentration 3333 (unit not given)): 5.06
- IgE (basophil activation, Fig 4D) ([9]; Concentration 10000 (unit not given)): -1.49
- IC50 ([9]; Homo sapiens, basophil CD63 expression, read-out: IC50 (Fig 4D, printed in the picture)): 0.0362 µM
- inhibition of binding to specific substrate, kinases other than members of PI3K [10]: ≤ 70%
